The record followed here is ChEMBL document CHEMBL4673176, “Virulence attenuating combination therapy: a potential multi-target synergy approach to treat Pseudomonas aeruginosa infections in cystic fibrosis patients” (RSC Med Chem, 2020).

A word on the IC50: it is the midpoint of a concentration-inhibition curve.

Assay [1] deals with Pseudomonas aeruginosa. Put plainly: Inhibition of quorum sensing system in Pseudomonas aeruginosa MCC-2080 assessed as reduction in biofilm formation incubated for 24 hrs by crystal violet staining based UV-Vis spectrophotometric method relative to control.
The target in assay [2] is T1, Transcriptional regulator MvfR (Pseudomonas aeruginosa PA14) (UniProt A0A072ZLE6).
T1 sequence (whole entry): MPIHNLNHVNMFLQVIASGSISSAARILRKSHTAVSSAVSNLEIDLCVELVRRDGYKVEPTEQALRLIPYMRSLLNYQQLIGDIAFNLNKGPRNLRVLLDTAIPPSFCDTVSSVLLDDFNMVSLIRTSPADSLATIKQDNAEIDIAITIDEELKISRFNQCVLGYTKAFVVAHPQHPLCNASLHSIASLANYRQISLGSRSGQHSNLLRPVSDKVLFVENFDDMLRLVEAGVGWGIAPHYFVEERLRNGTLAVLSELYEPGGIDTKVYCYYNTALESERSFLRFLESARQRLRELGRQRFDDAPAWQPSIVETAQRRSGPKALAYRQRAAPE
The assay can be described thus: Inhibition of PqsR in Pseudomonas aeruginosa PA14 assessed as potentiation of tobramycin-mediated reduction in biofilm CFU at 10 uM incubated for 24 hrs relative to tobramycin alone.

Assay [3] has as its target T1, Transcriptional regulator MvfR (Pseudomonas aeruginosa PA14). The assay can be described thus: Inhibition of PqsR in Pseudomonas aeruginosa PA14 assessed as potentiation of meropenem-mediated reduction in biofilm CFU at 10 uM incubated for 24 hrs relative to meropenem alone.
Assay [4] has as its system Pseudomonas aeruginosa. Put plainly: Antibacterial activity against Pseudomonas aeruginosa PAO1 infected in C57BL/6J mouse assessed as mouse survival at 100 uM administered intranasally at the time of infection and every 12 hrs and measured over 96 hrs. Conditions: PAO1, inhaled or nasal. Format: functional.
A short description of assay [5]: Competitive inhibition of FAM-labelled PscF (69 to 85 residues) binding to Pseudomonas aeruginosa PscE/PscG by fluorescence polarization. A general note: Fluorescence polarisation rises when a labelled molecule tumbles more slowly, as on binding a larger partner.
Assay [6] in a line: Inhibition of PqsR/PqsD in Pseudomonas aeruginosa PA14 assessed as reduction in biofilm formation by crystal violet assay.

Molecules are shown by their SMILES.

Regarding `O=c1c(O)c(-c2ccccc2)oc2cc(O)cc(O)c12`, the IC85 in assay [1] amounted to 100 µM.

As to `O=C(CSc1nc2cc([N+](=O)[O-])ccc2[nH]1)Nc1ccc(Oc2ccccc2)cc1`, the values for the fold change (FC) in assay [2] and in assay [3] were 17 and 178, respectively.

Turning to `Cc1cccc2c3c(ccc12)C1=C(C(=O)C3=O)[C@@H](C)CO1` [DIHYDROTANSHINONE I], in assay [4], the survival at 100 µM was 90%. In assay [5], the IC50 stood at 0.68 µM.

`CS(=O)(=O)c1nccc(-n2cnnn2)n1`: the IC50 in assay [6] was found to be 100 µM.
